According to paper PMC10778976, “BAY-3827 and SBI-0206965: Potent AMPK Inhibitors That Paradoxically Increase Thr172 Phosphorylation” (International Journal of Molecular Sciences, 2023):
pEC50, pIC50, pKi: −log10 of the molar value.

Experiments:
[1] = biological target: T1, “naïve” (unphosphorylated), bacterially expressed human α1β1γ1 complex (Homo sapiens, UniProt Q13131+Q9Y478); test: Allosteric activation of naïve (unphosphorylated) α1β1γ1 complex by MK-8722 with and without BAY-3827; type: biochemical
T1 construct: (His)6
T1 sequence (Q13131 whole entry): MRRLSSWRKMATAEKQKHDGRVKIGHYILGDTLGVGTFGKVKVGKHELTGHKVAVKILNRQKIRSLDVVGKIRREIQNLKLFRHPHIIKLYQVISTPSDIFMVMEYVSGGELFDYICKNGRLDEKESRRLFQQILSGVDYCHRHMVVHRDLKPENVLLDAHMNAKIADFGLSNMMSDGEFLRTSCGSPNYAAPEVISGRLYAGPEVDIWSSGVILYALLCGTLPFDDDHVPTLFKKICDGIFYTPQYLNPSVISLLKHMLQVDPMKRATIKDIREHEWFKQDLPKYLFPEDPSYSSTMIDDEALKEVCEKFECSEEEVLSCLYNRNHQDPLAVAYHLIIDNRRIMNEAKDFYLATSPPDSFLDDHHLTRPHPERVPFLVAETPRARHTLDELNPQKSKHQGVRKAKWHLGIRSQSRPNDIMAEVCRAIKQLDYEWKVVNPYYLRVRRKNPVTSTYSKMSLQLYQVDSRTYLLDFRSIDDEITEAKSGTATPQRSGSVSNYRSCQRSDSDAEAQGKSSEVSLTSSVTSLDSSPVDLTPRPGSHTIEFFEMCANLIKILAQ
T1 sequence (Q9Y478 2-270): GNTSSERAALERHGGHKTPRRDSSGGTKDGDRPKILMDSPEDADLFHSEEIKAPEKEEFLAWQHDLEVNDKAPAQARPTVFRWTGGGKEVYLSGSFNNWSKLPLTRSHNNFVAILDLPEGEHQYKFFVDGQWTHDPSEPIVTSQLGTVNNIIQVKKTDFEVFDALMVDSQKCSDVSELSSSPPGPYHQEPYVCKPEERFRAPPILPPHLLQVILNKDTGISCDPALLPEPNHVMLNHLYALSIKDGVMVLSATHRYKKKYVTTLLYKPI
T1 sequence (P54619 whole entry partner): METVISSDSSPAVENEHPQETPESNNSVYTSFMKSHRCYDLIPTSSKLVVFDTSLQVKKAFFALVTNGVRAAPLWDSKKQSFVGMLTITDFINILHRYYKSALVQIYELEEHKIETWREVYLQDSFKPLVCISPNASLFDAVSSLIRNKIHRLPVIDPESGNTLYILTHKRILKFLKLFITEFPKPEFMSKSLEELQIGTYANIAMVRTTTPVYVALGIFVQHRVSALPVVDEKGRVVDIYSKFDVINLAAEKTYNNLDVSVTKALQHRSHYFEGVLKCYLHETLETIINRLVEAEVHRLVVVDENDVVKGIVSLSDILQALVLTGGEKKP
Excerpt: (§1) AMPK assays measured the transfer of radioactivity from labelled ATP to a peptide substrate, which was separated from unreacted ATP by binding to P81 paper. This assay was described previously, except that we used [γ-^33P]ATP rather than [γ-^32P]ATP. The peptide substrate was the AMARA peptide in all experiments other than one, which analyzed allosteric activation by AMP (Figure 2A), when, for technical reasons, the SAMS peptide was used instead. With purified preparations of AMPK, it was assayed in solution, but for assays in cell lysates (Figure 3D and Figure 4D), it was first immunoprecipitated using a mixture of anti-α1 and -α2 antibodies and assayed in resuspended immunoprecipitates. After the initial immunoprecipitation of lysate containing 80 µg of protein, the pellets were washed twice with 1 mL of high salt IP buffer (50 mM Tris-HCL, pH 7.4 at 4 °C, 1 M NaCl, 1 mM EDTA, 1 mM EGTA, 50 mM NaF, 5 mM Na pyrophosphate, 1 mM dithiothreitol, 0.1% (v/v) Triton X-100) and twice with 1 mL of low salt IP buffer (as above but only 150 mM NaCl), followed by a final wash in 1 mL of assay buffer (50 mM Na Hepes, pH7.4, 150 mM NaCl, 1 mM dithiothreitol, 0.02% (v/v) Brij-35). After each wash, the pellet was recovered via centrifugation (16,000× g, 3 min) and then resuspended. The final resuspended pellets from each biological replicate were divided into two aliquots (40 µg lysate protein) to provide technical replicates and assayed as above.

71 kinases = tested on: 71 kinases; set-up: method as in PMID 17850214; settings: 1 µM, screen against 71 kinases; cited from earlier work
110 kinases = tested on: 110 kinases; set-up: method as in ref 27 = [27]; 27. International Centre for Kinase Profiling Kinase Profiling Inhibitor Database Available online: https://www.kinase-screen.mrc.ac.uk/kinase-inhibitors (accessed on 14 November 2023); settings: 10 µM, screen of 110 kinases; cited from earlier work
[2] = tested on: acetyl-CoA carboxylase (ACC, Ser80) phosphorylation in U2OS cells; test: ACC phosphorylation in U2OS cells (Western blot); type: cell-based, human; settings: 3 µM
Procedure: (§2) T-Rex U2OS cells carrying a Flp Recombinase Target (FRT) site were generated as described previously and grown in Dulbecco’s Modified Eagle’s Medium (DMEM) supplemented with 10% (v/v) FBS and 1% (v/v) penicillin/streptomycin.
(§3) Cells were lysed rapidly in situ on culture plates using ice-cold lysis medium containing phosphatase inhibitors, as described previously.
(§4) SDS-PAGE was performed using precast NuPAGE Tris-acetate 3–8% gradient polyacrylamide gels in Tris-acetate running buffer when analyzing ACC, GBF1, or Raptor, or NuPAGE Bis-Tris 4–12% gradient polyacrylamide gels in the MOPS buffer system (ThermoFisher Scientific, Waltham, MA, USA) for other proteins (unless stated otherwise). Proteins were transferred to nitrocellulose membranes using the iBlot 2 system (ThermoFisher Scientific). Membranes were enhanced if necessary using SuperSignal Western Blot Enhancer (ThermoFisher Scientific), then blocked for 1 h in Li-Cor Odyssey blocking buffer. The membranes were probed with the appropriate primary antibody ([…]) overnight at 4 °C. Detection was performed using secondary antibody or streptavidin probe (for total ACC) coupled to IR 680 or IR 800 dye, and the membranes were scanned using the LICOR Odyssey IR imager. Protein concentrations were determined by Coomassie Blue binding with bovine serum albumin as a standard. The cellular levels of AMP and ATP were determined via direct perchloric acid extraction from cells, with LC:MS used to estimate the levels of each nucleotide.

[3] = tested on: Raptor (Ser792) phosphorylation in U2OS cells; test: Raptor phosphorylation in U2OS cells (Western blot); type: cell-based, human; settings: 3 µM
Procedure: as §2, §3, §4

[4] = tested on: GBF1 (Thr1337) phosphorylation in U2OS cells; test: GBF1 phosphorylation in U2OS cells (Western blot); type: cell-based, human; settings: 3 µM
Procedure: as §2, §3, §4

[5] = tested on: human AMPK (α2β1γ1 complex); settings: control compound; cited from earlier work
purified rat liver AMPK = test: Allosteric activation of rat liver AMPK by AMP with and without BAY-3827; type: biochemical
Excerpt: as §1

[6] = tested on: endogenous AMPK from HEK-293 cells; test: Protection of immunoprecipitated AMPK against inactivation by PP2Cα (PPM1A); type: biochemical, human; settings: 200 µM
Procedure: AMPK was immunoprecipitated from HEK-293 cell lysate (2.5 mg of lysate protein) using a mixture of anti-α1 and -α2 antibodies. After extensive washing as in Section 4.5, aliquots equivalent to 80 µg of lysate protein were incubated in a shaking incubator at 30 °C for 10 min in Hepes buffer (50 mM Na Hepes, pH 7.4, 150 mM NaCl, 1 mM dithiothreitol, 0.02% (w/v) Brij-35) with 50 mM MgCl2 and sufficient PPM1A to yield about 80% inactivation, in the presence or absence of 200 µM AMP or the indicated concentration of BAY-3827 or SBI-0206965 (total volume 50 µL). The reaction was terminated by adding 1 mL of IP buffer (50 mM Tris/HCl, pH 7.4 at room temperature, 150 mM NaCl, 1 mM EDTA, 1 mM EGTA, 5 mM Na pyrophosphate, 50 mM NaF, 1 mM dithiothreitol, 0.1% (v/v) Triton X-100) and, after additional washing in the same buffer and a final wash into Hepes buffer, AMPK activity was determined using kinase assays as above.

[7] = tested on: endogenous AMPK from HEK-293 cells; test: Activation of dephosphorylated immunoprecipitated AMPK by the LKB1 complex; type: biochemical, human; settings: 200 µM
Procedure: AMPK was immunoprecipitated from HEK-293 cell lysate (2.5 mg protein) using a mixture of anti-α1 and -α2 antibodies. After extensive washing, it was incubated in a shaking incubator at 30 °C for 20 min in Hepes buffer with 50 mM MgCl2 and sufficient PPM1A to yield about 90% inactivation (total volume of 250 µL). The reaction was terminated by adding 1 mL of IP buffer and, after additional washing in the same buffer, aliquots equivalent to 80 µg of lysate protein were incubated in a shaking incubator at 30 °C for 10 min in Hepes buffer with […] and 5 mM MgCl2, with or without a limiting amount of LKB1:STRADα:MO25α complex (0.5 µg) in the presence or absence of 200 µM AMP or the indicated concentration of BAY-3827 or SBI-0206965 (total volume of 50 µL). The reaction was terminated by adding 1 mL of IP buffer and, after additional washing in the same buffer and a final wash into Hepes buffer, AMPK activity was determined using kinase assays as above.

AMPK = biological target: AMPK; set-up: method as in PMID 28625738; settings: read-out: Ki, competitive with ATP; cited from earlier work
[8] = in the presence of 30 nM BAY-3827

## MK-8722
[1]; [8]
  maximal activation by MK-8722: 6.7 fold
[1]; without BAY-3827
  pEC50: 5.96
  maximal activation by MK-8722: 11 fold

## c1cc(-c2cnn3cc(-c4ccc(OCCN5CCCCC5)cc4)cnc23)ccn1 [compound C, dorsomorphin]
71 kinases
  number of kinases inhibited to a greater extent than AMPK: 9
110 kinases
  number of kinases inhibited to a greater extent than AMPK: no less than 30

## CC1=C(C#N)C(c2ccc3c(c2)c(NC(=O)c2ccccc2C)nn3C)C(C#N)=C(C)N1 [BAY-974]
[2]
  elimination of MK-8722-stimulated ACC phosphorylation: not
[3]
  elimination of MK-8722-stimulated Raptor phosphorylation: not
[4]
  elimination of MK-8722-stimulated GBF1 phosphorylation: not
[5]
  inhibition of AMPK: did not inhibit

## Nc1ncnc2c1ncn2[C@@H]1O[C@H](COP(=O)(O)O)[C@@H](O)[C@H]1O [AMP]
Purified rat liver AMPK; [8]
  maximal activation by AMP: 2.7 fold
Purified rat liver AMPK; without BAY-3827
  pEC50: 5.23
  maximal activation by AMP: 2.9 fold
Purified rat liver AMPK; without BAY-3827, read-out: IC50 for inhibition by high AMP
  pIC50: 2.74
[6]
  protection against inactivation by PPM1A: substantial protection
[7]
  promotion of activation by LKB1: > 2 fold

## CN(C)S(=O)(=O)c1ccc2c(c1)/C(=C/c1cc3c([nH]1)CCCC3)C(=O)N2 [SU6656]
AMPK
  pKi: 6.77
